The source of these data is patent US7868024B2, “Derivatives of N-(heteroaryl)-1-heteroaryl-1H-indole-2-carboxamides, preparation thereof and therapeutic use thereof” (Sanofi-Aventis, priority 2007, dated 2011).

The melting point is the temperature of the solid-liquid transition. In general, inhibition refers to how much of the control response was suppressed.

Molecules are shown by their SMILES.

In one series the target is T1, TRPV1 receptor (Rattus norvegicus, UniProt O35433).
T1 construct: The neurons of the DRG naturally express the TRPV1 receptor; endogenous in cells; host or cells: primary culture of newborn rat dorsal root ganglion (DRG) neurons
Put plainly: Inhibition of the current induced by capsaicin in rat DRG cells (whole-cell patch clamp). The class given is cell-based. The following applies: DRG neuron; compound at 10 nM; capsaicin (1 μM) response; primary culture of newborn rat DRG neurons; read-out: % Inhibition by the DRG patch technique. As to the method: Test of the Inhibition of the Current Induced by Capsaicin with Regard to Rat DRGs
Primary Culture of Rat Dorsal Root Ganglion (DRG) Cells:
The neurons of the DRG naturally express the TRPV1 receptor.
Primary cultures of DRGs of newborn rats are prepared from 1-day-old rats. Briefly, after dissection, the ganglions are trypsinized and their cells dissociated mechanically by gentle trituration. […]
The measurement chambers (volume 800 μl) comprising the cell preparation are placed on the stage of an inverted microscope (Olympus IMT2) equipped with Hoffman optics (Modulation Contrast, New York) and are observed at a magnification of 400×. […] The overall currents (membrane potential set at −60 mV) are recorded with an Axopatch 1D amplifier (Axon Instruments, Foster City, Calif.) connected to a PC controlled by Pclamp8 software (Axon Instruments). The current plots are recorded on paper and simultaneously recorded digitally (sampling frequency 15 to 25 Hz) and acquired on the hard disk of the PC.
The application of a micromolar capsaicin solution produces an incoming cationic current with regard to the DRG cells (voltage set at −70 mV). […] The results are expressed as % of inhibition of the control capsaicin response.
In general terms: In patch-clamp work, channel activity is measured electrically.

T1 sequence (O35433 whole entry): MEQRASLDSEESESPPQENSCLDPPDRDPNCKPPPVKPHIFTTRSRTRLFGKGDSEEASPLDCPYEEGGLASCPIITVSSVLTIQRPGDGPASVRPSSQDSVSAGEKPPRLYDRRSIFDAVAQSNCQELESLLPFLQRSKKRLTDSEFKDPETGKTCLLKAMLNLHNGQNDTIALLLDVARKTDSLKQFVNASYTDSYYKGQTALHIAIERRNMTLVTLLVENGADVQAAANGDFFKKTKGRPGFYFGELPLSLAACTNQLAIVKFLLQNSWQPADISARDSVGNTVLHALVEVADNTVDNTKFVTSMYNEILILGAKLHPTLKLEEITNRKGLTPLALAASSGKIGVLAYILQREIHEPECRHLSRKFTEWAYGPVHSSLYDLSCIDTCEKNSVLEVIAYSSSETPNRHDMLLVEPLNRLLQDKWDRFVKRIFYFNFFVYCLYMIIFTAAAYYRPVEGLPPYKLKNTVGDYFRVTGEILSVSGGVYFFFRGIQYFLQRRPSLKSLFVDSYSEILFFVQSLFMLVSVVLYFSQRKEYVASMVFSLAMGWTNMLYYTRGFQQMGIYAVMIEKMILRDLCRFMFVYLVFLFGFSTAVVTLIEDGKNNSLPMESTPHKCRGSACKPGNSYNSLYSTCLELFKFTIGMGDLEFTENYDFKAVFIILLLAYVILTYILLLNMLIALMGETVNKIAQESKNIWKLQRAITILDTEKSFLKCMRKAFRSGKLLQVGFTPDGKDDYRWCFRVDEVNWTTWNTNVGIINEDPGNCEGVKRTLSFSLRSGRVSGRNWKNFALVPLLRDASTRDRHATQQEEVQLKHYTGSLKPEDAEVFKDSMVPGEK

In the case of `Cc1ccnc(-n2c(C(=O)Nc3ccc4c(ccn4C)c3)cc3cc(F)ccc32)c1` [Compound No. 7, N-(1-methyl-1H-indol-5-yl)-5-fluoro-1-(4-methylpyridin-2-yl)-1H-indole-2-carboxamide], the melting point is 276 to 279 °C.

The compound `Cc1cc(-n2c(C(=O)Nc3ccc4c(ccn4C)c3)cc3cc(F)ccc32)ccn1` [Compound No. 9, N-(1-Methyl-1H-indol-5-yl)-5-fluoro-1-(2-methylpyridin-4-yl)-1H-indole-2-carboxamide] showed a melting point of 213 to 216 °C.

`Cc1nc2cc(NC(=O)c3cc4cc(F)ccc4n3-c3cccnc3)ccc2n1C` [Compound No. 6, N-(1,2-Dimethyl-1H-benzimidazol-5-yl)-5-fluoro-1-(pyridin-3-yl)-1H-indole-2-carboxamide] showed a melting point of 139 to 141 °C.

Regarding `Cc1cc(C)nc(-n2c(C(=O)Nc3ccc4c(c3)nc(C)n4C)cc3cc(F)ccc32)c1` [Compound No. 10, N-(1,2-Dimethyl-1H-benzimidazol-5-yl)-5-fluoro-1-(4,6-dimethylpyridin-2-yl)-1H-indole-2-carboxamide], the inhibition at 0.01 µM at TRPV1 receptor amounted to 70%.

Regarding `Cn1ccc2cc(NC(=O)c3cc4cc(F)ccc4n3-c3ccccn3)ccc21` [Compound No. 3, N-(1-Methyl-1H-indol-5-yl)-5-fluoro-1-(pyridin-2-yl)-1H-indole-2-carboxamide], the melting point lay in the range of 210 to 211 °C.

Take `Cc1cc(C)nc(-n2c(C(=O)Nc3ccc4c(ccn4C)c3)cc3cc(F)ccc32)c1` [Compound No. 11, N-(1-Methyl-1H-indol-5-yl)-5-fluoro-1-(4,6-dimethylpyridin-2-yl)-1H-indole-2-carboxamide]: the melting point was in the range of 198 to 199 °C.

In the case of `Cc1nc2cc(NC(=O)c3cc4cc(F)ccc4n3-c3ccccn3)ccc2n1C` [Compound No. 5, N-(1,2-Dimethyl-1H-benzimidazol-5-yl)-5-fluoro-1-(pyridin-2-yl)-1H-indole-2-carboxamide], the melting point lay in the range of 260 to 261 °C.

The compound `Cc1nc2cc(NC(=O)c3cc4cc(F)ccc4n3-c3ccncc3)ccc2n1C` [Compound No. 4, N-(1,2-Dimethyl-1H-benzimidazol-5-yl)-5-fluoro-1-(pyridin-4-yl)-1H-indole-2-carboxamide] showed a melting point of 226 to 229 °C.

As for `Cn1ccc2cc(NC(=O)c3cc4cc(F)ccc4n3-c3cccnc3)ccc21` [Compound No. 2, N-(1-methyl-1H-indol-5-yl)-5-fluoro-1-(pyridin-3-yl)-1H-indole-2-carboxamide], the melting point lay in the range of 203 to 205 °C.

Compound `Cc1ccnc(-n2c(C(=O)Nc3ccc4c(c3)nc(C)n4C)cc3cc(F)ccc32)c1` [Compound No. 8, N-(1,2-Dimethyl-1H-benzimidazol-5-yl)-5-fluoro-1-(4-methylpyridin-2-yl)-1H-indole-2-carboxamide] yielded a melting point of 270 to 278 °C.
